“And” between values parts separate entries of the source, which are not always exact repeats. Equal values may be shown once.
Experiments:
ONYX-015 = experiment: XTT assay, protection from cytopathic effect of ONYX-015 in H1299 cells; format: cell-based, adenovirus; details: for Protection (%) Ave. / Protection (%): ONYX-015 MOI 10, H1299, 7 days; for Protection (%): single wells, dihydrate
Description: (§1) Cells frozen in liquid nitrogen were thawed in water bath at 37° C., seeded at T25 flask, and cultured at 70-90% sub-confluent monolayer. Cells were detached with trypsin, and prepared suspension at a concentration of 1.0×10^4 cells/ml.
(§2) Cells were seeded in 96 well-plate (100 μL/well, 1000 cells/well), then cultured with 5% CO2 at 37° C.
(§3) Viruses were diluted at MOI of 0.1 (OBP-401) or 10 (ONYX-015) in H1299. Medium in each well was removed, 50 μL of diluted virus solution was added to each well of the plate. 2 hours later, medium was aspirated and replaced with fresh medium containing 2% FCS and serially diluted CDV. Cells were incubated with 5% CO2 at 37° C. for 7 days after infection.
(§4) 100 μL of PBS, 50 μL of XTT labeling reagent, and 1 μL of ion coupling reagent per well of plate were mixed.
Medium in each well of plate was removed, and 150 μL of mixture prepared above was added to each well. Plate was incubated with 5% CO2 at 37° C. for 4 hours, and then calculated absorbance at 450 nm and 690 nm. Protection was determined by the formula below:
Protection(%)={OD(AdV(+):CDV(+))−OD(AdV(+):CDV(−))}/{OD(AdV(−):CDV(+))−OD(AdV(+):CDV(−))}×100.

[1] = XTT cell viability assay, CDV alone, A549 cells; format: cell-based; details: human; A549 cells, XTT; read-out: CC50, CDV concentration that reduce the relative cell viability to 50%
Description: as §1, §2
as §3, with “1 (OBP-301, OBP-202)” for “0.1 (OBP-401) or 10 (ONYX-015)”, “H1299 and 5 in A549 (PFU/cell).” for “H1299.”, “150” for “50”
as §4
(§5) Medium in each well of plate was removed, and 150 μL of mixture prepared above was added to each well. Plate was incubated with 5% CO2 at 37° C. for 4 hours, and then calculated absorbance at 450 nm and 690 nm. Protection was determined by the formula below: […]

A549 cells = experiment: XTT cell viability assay, CDV alone, A549 cells; format: cell-based; details: for Relative cell viability Ave. / Relative cell viability: A549, no virus, 7 days; for Relative cell viability: single wells, dihydrate
Description: as §1, §2
as §3, with “1 (OBP-301, OBP-202)” for “0.1 (OBP-401) or 10 (ONYX-015)”, “H1299 and 5 in A549 (PFU/cell).” for “H1299.”, “150” for “50”
as §4, §5

H1299 cells = experiment: XTT cell viability assay, CDV alone, H1299 cells; format: cell-based; details: for Relative cell viability Ave. / Relative cell viability: H1299, no virus, 7 days; for Relative cell viability: single wells, dihydrate
Description: as §1, §2
as §3, with “1 (OBP-301, OBP-202)” for “0.1 (OBP-401) or 10 (ONYX-015)”, “H1299 and 5 in A549 (PFU/cell).” for “H1299.”, “150” for “50”
as §3, §4, §5

[2] = XTT cell viability assay, CDV alone, H1299 cells; format: cell-based; details: human; H1299 cells, XTT; read-out: CC50, CDV concentration that reduce the relative cell viability to 50%
Description: as §1, §2
as §3, with “1 (OBP-301, OBP-202)” for “0.1 (OBP-401) or 10 (ONYX-015)”, “H1299 and 5 in A549 (PFU/cell).” for “H1299.”, “150” for “50”
as §3, §4, §5

Nc1ccn(C[C@@H](CO)OCP(=O)(O)O)c(=O)n1.O.O [CDV, 1-[(S)-3-hydroxy-2-(phosphonomethoxy)propyl]cytosine dihydrate]
Protection (%) Ave. (ONYX-015; CDV 0.01 μM): −1.092% | Protection (%) (ONYX-015; CDV 0.01 μM): −1.284% and −1.233% and −0.822% and −1.027% | Protection (%) Ave. (ONYX-015; CDV 0.06 μM): −0.642% | Protection (%) (ONYX-015; CDV 0.06 μM): −0.616% and −0.205% and 0.051% and −1.798% | Protection (%) Ave. (ONYX-015; CDV 0.32 μM): 1.516% | Protection (%) (ONYX-015; CDV 0.32 μM): 3.237% and 4.675% and −0.205% and −1.644% | Protection (%) Ave. (ONYX-015; CDV 1.6 μM): 2.646% | Protection (%) (ONYX-015; CDV 1.6 μM): 4.315% and 1.849% and −1.079% and 5.497% | Protection (%) Ave. (ONYX-015; CDV 8 μM): 5.703% | Protection (%) Ave. (ONYX-015; CDV 40 μM): 55.420% | Protection (%) (ONYX-015; CDV 40 μM): 50.912% and 58.926% and 55.536% and 56.306% | Protection (%) Ave. (ONYX-015; CDV 200 μM): 11.264% | Protection (%) (ONYX-015; CDV 200 μM): 10.121% and 16.902% and 9.350% and 8.682% | Protection (%) Ave. (ONYX-015; CDV 1000 μM): −0.783% | Protection (%) (ONYX-015; CDV 1000 μM): −2.312% and −2.260% and −2.363% and 3.802% | cytopathic effect induced by ONYX-015 (ONYX-015; H1299 cells, FIG. 2A): apparently inhibited | CC50 at 7 days [1]: 107 µM | toxicity of CDV itself (A549 cells; A549 cells, high concentrations): toxic | Relative cell viability Ave. (A549 cells; CDV 10 μM): 0.969 | Relative cell viability (A549 cells; CDV 10 μM): 0.993 and 0.938 and 0.962 and 0.982 | Relative cell viability Ave. (A549 cells; CDV 20 μM): 0.935 | Relative cell viability (A549 cells; CDV 20 μM): 0.982 and 0.877 and 0.924 and 0.958 | Relative cell viability Ave. (A549 cells; CDV 30 μM): 0.912 | Relative cell viability (A549 cells; CDV 30 μM): 0.944 and 0.883 and 0.881 and 0.939 | Relative cell viability Ave. (A549 cells; CDV 40 μM): 0.908 | Relative cell viability (A549 cells; CDV 40 μM): 0.951 and 0.860 and 0.910 and 0.911 | Relative cell viability Ave. (A549 cells; CDV 50 μM): 0.852 | Relative cell viability (A549 cells; CDV 50 μM): 0.819 and 0.842 and 0.862 and 0.884 | Relative cell viability Ave. (A549 cells; CDV 60 μM): 0.798 | Relative cell viability (A549 cells; CDV 60 μM): 0.755 and 0.792 and 0.809 and 0.837 | Relative cell viability Ave. (A549 cells; CDV 70 μM): 0.720 | Relative cell viability (A549 cells; CDV 70 μM): 0.709 and 0.703 and 0.747 and 0.719 | Relative cell viability Ave. (A549 cells; CDV 80 μM): 0.696 | Relative cell viability (A549 cells; CDV 80 μM): 0.656 and 0.707 and 0.737 and 0.683 | Relative cell viability Ave. (A549 cells; CDV 90 μM): 0.544 | Relative cell viability (A549 cells; CDV 90 μM): 0.502 and 0.552 and 0.606 and 0.518 | Relative cell viability Ave. (A549 cells; CDV 100 μM): 0.471 | Relative cell viability (A549 cells; CDV 100 μM): 0.511 and 0.451 and 0.482 and 0.438 | Relative cell viability Ave. (H1299 cells; CDV 0.01 μM, Table 4A): 1.014 | Relative cell viability Ave. (H1299 cells; CDV 0.01 μM, Table 4B): 0.992 | Relative cell viability (H1299 cells; CDV 0.01 μM, Table 4A): 0.978 and 1.068 and 1.002 and 1.009 | Relative cell viability (H1299 cells; CDV 0.01 μM, Table 4B): 0.970 and 1.010 and 0.999 and 0.990 | Relative cell viability Ave. (H1299 cells; CDV 0.06 μM, Table 4A): 0.996 | Relative cell viability Ave. (H1299 cells; CDV 0.06 μM, Table 4B): 0.985 | Relative cell viability (H1299 cells; CDV 0.06 μM, Table 4A): 0.945 and 1.070 and 0.997 and 0.972 | Relative cell viability (H1299 cells; CDV 0.06 μM, Table 4B): 0.950 and 1.019 and 0.990 and 0.981 | Relative cell viability Ave. (H1299 cells; CDV 0.32 μM, Table 3A): 1.074 | Relative cell viability Ave. (H1299 cells; CDV 0.32 μM, Table 4A): 1.020 | Relative cell viability (H1299 cells; CDV 0.32 μM, Table 3A): 0.963 and 1.073 and 1.171 and 1.087 | Relative cell viability (H1299 cells; CDV 0.32 μM, Table 4A): 0.977 and 1.068 and 1.001 and 1.032 | Relative cell viability Ave. (H1299 cells; CDV 1.6 μM, Table 3A): 1.017 | Relative cell viability Ave. (H1299 cells; CDV 1.6 μM, Table 4A): 1.030 | Relative cell viability Ave. (H1299 cells; CDV 1.6 μM, Table 4B): 0.990 | Relative cell viability (H1299 cells; CDV 1.6 μM, Table 3A): 0.970 and 1.043 and 1.110 and 0.945 | Relative cell viability (H1299 cells; CDV 1.6 μM, Table 4A): 0.981 and 1.061 and 1.044 and 1.033 | Relative cell viability (H1299 cells; CDV 1.6 μM, Table 4B): 0.984 and 0.996 and 0.983 and 0.997 | Relative cell viability Ave. (H1299 cells; CDV 8 μM, Table 3A): 1.010 | Relative cell viability Ave. (H1299 cells; CDV 8 μM, Table 4A): 0.989 | Relative cell viability Ave. (H1299 cells; CDV 8 μM, Table 4B): 0.925 | Relative cell viability (H1299 cells; CDV 8 μM, Table 3A): 0.912 and 1.037 and 1.043 and 1.047 | Relative cell viability (H1299 cells; CDV 8 μM, Table 4A): 0.918 and 1.022 and 1.016 and 0.999 | Relative cell viability (H1299 cells; CDV 8 μM, Table 4B): 0.913 and 0.935 and 0.928 and 0.923 | Relative cell viability Ave. (H1299 cells; CDV 40 μM, Table 3A): 0.923 | Relative cell viability Ave. (H1299 cells; CDV 40 μM, Table 4A): 0.695 | Relative cell viability Ave. (H1299 cells; CDV 40 μM, Table 4B): 0.600 | Relative cell viability (H1299 cells; CDV 40 μM, Table 3A): 1.004 and 0.919 and 0.876 and 0.894 | Relative cell viability (H1299 cells; CDV 40 μM, Table 4A): 0.709 and 0.677 and 0.686 and 0.706 | Relative cell viability (H1299 cells; CDV 40 μM, Table 4B): 0.588 and 0.574 and 0.628 and 0.609 | Relative cell viability Ave. (H1299 cells; CDV 200 μM, Table 3A): 0.398 | Relative cell viability Ave. (H1299 cells; CDV 200 μM, Table 4A): 0.199 | Relative cell viability Ave. (H1299 cells; CDV 200 μM, Table 4B): 0.136 | Relative cell viability (H1299 cells; CDV 200 μM, Table 3A): 0.401 and 0.420 and 0.362 and 0.411 | Relative cell viability (H1299 cells; CDV 200 μM, Table 4A): 0.221 and 0.203 and 0.185 and 0.186 | Relative cell viability (H1299 cells; CDV 200 μM, Table 4B): 0.135 and 0.128 and 0.145 and 0.134 | Relative cell viability Ave. (H1299 cells; CDV 1000 μM, Table 4A): 0.037 | Relative cell viability Ave. (H1299 cells; CDV 1000 μM, Table 4B): 0.015 | Relative cell viability (H1299 cells; CDV 1000 μM, Table 4A): 0.033 and 0.043 and 0.036 and 0.037 | Relative cell viability (H1299 cells; CDV 1000 μM, Table 4B): 0.021 and 0.013 and 0.012 and 0.015 | toxicity of CDV itself (H1299 cells; H1299 cells, high concentrations): toxic | CC50 at 7 days [2]: 146 µM

From patent US20090181931A1, “ANTIVIRAL ACTIVITY OF CIDOFOVIR AGAINST ONCOLYTIC VIRUSES” (priority 2008, published 2009)
